Measured values as given in patent US11679104B2, “Compositions and methods of enhancing the homing and/or engraftment of hematopoietic cells in the central nervous system” (Duke University, priority 2017, dated 2023).
“Also recorded” adds a separate entry of the source.

System: microglia
Assay: BMT with UBC-GFP bone marrow followed by PLX5622 chow: beMφ engraftment into the brain
Format: in vivo, mice
Conditions: for GFP+ beMφ engraftment in the brain: 1 week recovery, 6 weeks standard chow
Description: Mice were γ-irradiated with a lethal dose of 1000 rad. Four hours post irradiation, mice were intravenously injected with 5×10^6 bone marrow cells. Mice were given water supplemented with trimethoprim-sulfamethoxazole for two weeks and monitored daily for the first 4 days. A lead shield was placed over the head during irradiation in some experiments, as indicated.
To determine transcriptional and morphological changes of microglia and beMφ to an insult, mice were given a peripheral LPS challenge. Mice were first irradiated and given BMT with UBC-GFP bone marrow. To target microglia, head shielding was applied during irradiation in some mice. After 1 week of recovery, mice were treated with PLX 5622 for 2 weeks to deplete the brain macrophage niche then placed on standard chow for 6 weeks. Mice were injected with 50 μg LPS or saline (i.p.). 6 hours later, brains were removed and macrophages sorted by MACS on CD11B beads as described above.
We utilized the Csf1r inhibitor PLX5622 in chow, to eliminate irradiation-damaged, yet still viable, microglia. Mice were given BMT with UBC-GFP bone marrow with or without head covering during irradiation, followed by 1 week of recovery, 2 weeks of chow containing PLX5622, and finally 6 weeks of recovery on standard chow.
Our third model (see Example 2) was designed to take advantage of the synergistic effect on engraftment we had observed with the combination of CNS irradiation and Csf1r deletion in microglia. Instead of Csf1r deletion using our genetic model, we utilized the Csf1r inhibitor PLX5622 in chow, to eliminate the irradiation-damaged, yet still viable, microglia. Mice were given BMT with UBC-GFP bone marrow with or without head covering during irradiation, followed by 1 week of recovery, 2 weeks of chow containing PLX5622, and finally 6 weeks of recovery on standard chow. […] Due to the robust level of engraftment in this model, we sorted GFP+ beMφ from whole body irradiated mice and GFP microglia from head covered mice for RNA-seq. Mice were injected i.p. with saline or LPS 6 hours prior to cell collection. Microglia and beMφ were FACS sorted from mice with or without head-covering, respectively, and then RNA-seq followed by differential expression analysis was performed (n=3 microglia samples, pooled from 3 total mice for each sample, and n=3 beMφ samples, pooled from 3 total mice for each sample; performed once).

## COc1ncc(F)cc1CNc1ccc(Cc2c[nH]c3ncc(C)cc23)c(F)n1 [PLX5622]
BMT with head covering during irradiation, 2 weeks PLX5622 chow
  GFP+ beMφ engraftment in the brain: minimal GFP+ beMφ engraftment
BMT with head covering during irradiation, 2 weeks PLX5622 chow, then 6 weeks standard chow
  repopulation of the CNS with endogenous microglia: effectively repopulated the CNS with endogenous microglia
BMT with whole body irradiation, 2 weeks PLX5622 chow
  GFP+ beMφ engraftment in the brain: robust engraftment of GFP+ beMφ; also recorded: robust engraftment of GFP+ beMϕ
System of BMT and PLX5622 treatment for beMφ engraftment
  repopulation of microglia by beMφ: substantial repopulation of microglia by beMϕ
Used as part of a protocol that clears the microglial niche
  potentiation of engraftment of hematopoietic-derived macrophages into the brains of mice: can potentiate engraftment
